Results taken from paper PMC3815685 (ACS chemical biology, 2013).

Tests used:
[1] = target: PiCSAD (Polaribacter irgensii, UniProt A4C1C8); assay: decarboxylation, OPA-HPLC, partially purified enzyme; assay type: biochemical; conditions: PBS pH 7.4, 10 μM PLP, 4 °C
[2] = target: T1, hCSAD (Homo sapiens, UniProt Q9Y600); assay: inhibition of CSA decarboxylation, OPA-HPLC of hypotaurine/taurine; assay type: biochemical
T1 sequence (Q9Y600 1-493): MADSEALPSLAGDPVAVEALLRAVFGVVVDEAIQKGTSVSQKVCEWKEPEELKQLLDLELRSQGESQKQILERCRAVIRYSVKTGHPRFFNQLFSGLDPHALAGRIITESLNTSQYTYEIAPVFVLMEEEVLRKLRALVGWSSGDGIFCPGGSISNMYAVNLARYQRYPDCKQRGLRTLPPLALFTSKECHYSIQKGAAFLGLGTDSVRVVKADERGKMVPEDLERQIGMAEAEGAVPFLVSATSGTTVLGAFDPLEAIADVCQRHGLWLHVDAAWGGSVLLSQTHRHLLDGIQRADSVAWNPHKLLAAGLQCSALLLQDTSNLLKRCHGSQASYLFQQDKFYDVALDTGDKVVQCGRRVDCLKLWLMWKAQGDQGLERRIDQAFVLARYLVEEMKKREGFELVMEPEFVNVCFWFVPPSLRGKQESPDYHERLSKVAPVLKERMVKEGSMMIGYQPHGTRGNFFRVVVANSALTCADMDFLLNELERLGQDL

SMILES | decarboxylation, OPA-HPLC, partially purified enzyme [1] | IC50 [2]
N[C@@H](CS(=O)O)C(=O)O [CSA, cysteine sulfinic acid] | showed decarboxylation of CSA but no detectable activity towards CA or L-Glu | –
N[C@@H](CCC(=O)O)C(=O)O [L-Glu, L-glutamic acid] | – | 1100 ± 100 µM
